# Measurements: patent US9393249B2, “Antimicrobial composition” (INSTITUTE OF TECHNOLOGY SLIGO, priority 2008, dated 2016)
# What was measured:
# S. aureus NCIMB 9587 = assay: Checkerboard synergy test; type: cell-based, Staphylococcus aureus; conditions: MIC as two-fold dilution fraction of each agent's final dilution (A^3IS 3%; antibiotics 1:100 to 1:3,200,000); overnight 35° C.
# Method: Stock solutions were prepared according to published standards (CLSI (Clinical and Laboratory Standards Institute): Performance Standards for Antimicrobial Susceptibility testing. Fifteenth Informational Supplement. CLSI document M100-S15. Pennsylvania USA 2005, 19087-1898)
# Synergy tests were performed in 96-well microtiter plates containing the A^3IS (from Example 3)/antibiotic combinations in two fold dilutions dispensed in a checkerboard fashion on the day of the assay. Each well contained 0.1 mL of A^3IS/antimicrobial combinations. A suspension of S. aureus test culture was prepared from an overnight broth culture to yield a final inoculum of approximately 3×10^5 to 5×10^5 CFU/mL. Twenty microliters of this suspension was added to all but the sterility control wells. MICs were read after overnight incubation at 35° C. Growth and sterility controls were included in each plate. Each isolate was tested twice. Growth was determined by visually examining each well for evidence of turbidity.
# For the first clear well in each row of the microtiter plate containing both antimicrobial agents, the fractional inhibitory concentration (FIC) was calculated as follows: FIC of drug A (FICA)=MIC of drug A in combination/MIC of drug A alone, and the FIC of drug B (FICB)=MIC of drug B in combination/MIC of drug B alone.
# L929 cells = assay: ISO 10993-5 agar overlay cytotoxicity (neutral red); conditions: 24 hrs
# Method: ISO 10993, agar overlay tests for cytotoxicity: in vitro method is also used, employing L929 cells (mouse fibroblasts ECACC 85011425). In brief; a confluent monolayer of cells is incubated, this is then covered with a layer fresh medium (EMEM, 2 mM L-Glutamine, 5% FBS, 2% Penicillin-Streptomycin) containing 1.5 g/l of soft agar and allowed to solidify. One tenth of the surface is covered with test materials (previously described) and incubated for 24 hrs. Post incubation the test material is carefully removed and a vital stain (neutral red) in fresh media added. After incubation this is removed, the cells washed and then the dye extracted from the cells and quantified spectrophotometrically for cell viability.
# Percent toxicity was calculated according to the formula: % Toxicity=1−(OD average of test material wells/average OD of corresponding control wells (sodium azide added))×100. Included in the assay are a 50% concentration of A^3IS, a range of concentrations of commercial silver containing gel and commercial zinc containing gel product, compared to sodium azide (positive control). […] For the agar overlay toxicity assay the amount of test materials used was similar to that used for the initial direct contact assays of 100 mg per well however the contact time was extended to 24 hrs.
# Candida albicans = assay: Well/disc diffusion inhibition assay of combinations; type: cell-based; conditions: 50 μl A^3IS + 50 μg agent versus 100 μl A^3IS alone; FIG. 19
# Method: Various combinations of A^3IS (from Example 3) and antibiotics/antifungal agents were tested against a placebo and A^3IS alone using a well/disc diffusion method. […] Well/Disc Diffusion Methods for Measurement of Microbial Inhibition: Agar plates were inoculated by swabbing overnight culture onto the plate surface. Plates were allowed to stand at room temperature for 15 minutes before use. Wells 8.2 mm diameter were bored into the surface of the agar. 100 μl of samples (a) to (c) was placed into each well. The samples diffuse into the agar around the well and are assayed for an ability to produce a zone of inhibition. Plates are incubated for 24, 48 or 72 hrs and zones of inhibition are measured. The diameter of zones, including the diameter of the well (8.2 mm) was recorded.
# [1] = tested on: clinical isolates of Mastitis causing Staphylococcus aureus; assay: Inhibition assay (3 day repeats) on mastitis clinical isolates; type: cell-based; conditions: FIG. 11b
# Method: • Escherichia coli (NCIMB 8545), Staphylococcus aureus (NCIMB 9518) and Pseudomonas aeruginosa (NCIMB 8626) are grown on nutrient agar or in nutrient broth for 24 hrs at 37° C. • Candida albicans (NCIMB 3179) and Saccharomyces cerevisiae are grown on sabaroud dextrose agar or in sabaroud dextrose broth for 24 hrs at 37° C. • Propionibacterium acnes (P. acnes ATCC/NTC 11827) is grown anaerobically on blood agar or in nutrient broth for 72 hrs at 37° C. • 22 isolates of Staphylococcus aureus from clinical mastitis obtained from Sligo regional Veterinary Laboratories are grown on nutrient agar or in nutrient broth for 24 hrs at 37° C. • For testing conducted in the Sligo Regional General Hospital; five Beta haemolytic Streptococci Group A clinical isolates are grown on blood agar or in nutrient broth for 24 hrs at 37° C. • Campylobacter coli (NCTC 11366) is grown on brain heart infusion agar or in brain heart infusion broth for 72 hrs at 37° C. • Campylobacter jejuni (NCTC 11322) and three clinical isolates are grown on brain heart infusion agar or in brain heart infusion broth for 72 hrs at 37° C. • MRSA (ATCC 43300) and seven clinical isolates are grown on nutrient agar or in brain heart infusion broth for 72 hrs at 37° C. • Laboratory mould isolates are grown on sabaroud dextrose agar or in sabaroud dextrose broth for 48 hrs at 25° C. • Botrytis cinerea is grown on sabaroud dextrose agar or in sabaroud dextrose broth for 48 hrs at 25° C.
# Agar plates are inoculated by swabbing overnight culture onto the plate surface. Plates are allowed to stand at room temperature for 15 minutes before use. Wells 8.2 mm diameter are bored into the surface of the agar. One hundred and eighty μl of sample is placed into each well. The samples diffuse into the agar around the well and are assayed for an ability to produce a zone of inhibition. Plates are incubated for 24, 48 or 72 hrs and zones of inhibition are measured using an Autodata automatic zone reader. The diameter of zones, including the diameter of the well (8.2 mm), is recorded. […]
compound,measurement,setting,value
CC[C@H]1OC(=O)[C@H](C)[C@@H](O[C@H]2C[C@@](C)(OC)[C@@H](O)[C@H](C)O2)[C@H](C)[C@@H](O[C@@H]2O[C@H](C)C[C@H](N(C)C)[C@H]2O)[C@](C)(OC)C[C@@H](C)C(=O)[C@H](C)[C@@H](O)[C@]1(C)O [KIacid],MICs for A^3IS & antibiotics on S. aureus NCIMB 9587,S. aureus NCIMB 9587,½
"CO/N=C(\C(=O)N[C@@H]1C(=O)N2C(C(=O)O)=C(COC(N)=O)CS[C@H]12)c1ccco1 [Zinacef, Cefuroxime]",MICs for A^3IS & antibiotics on S. aureus NCIMB 9587,S. aureus NCIMB 9587,½
CC[C@H]1OC(=O)[C@H](C)[C@@H](O[C@H]2C[C@@](C)(OC)[C@@H](O)[C@H](C)O2)[C@H](C)[C@@H](O[C@@H]2O[C@H](C)C[C@H](N(C)C)[C@H]2O)[C@](C)(O)C[C@@H](C)C(=O)[C@H](C)[C@@H](O)[C@]1(C)O [Erythrocin],MICs for A^3IS & antibiotics on S. aureus NCIMB 9587,S. aureus NCIMB 9587,½
CC1(C)S[C@@H]2[C@H](NC(=O)[C@H](N)c3ccc(O)cc3)C(=O)N2[C@H]1C(=O)O [Amoxicillin],MICs for A^3IS & antibiotics on S. aureus NCIMB 9587,S. aureus NCIMB 9587,¼
"CC1=C(C(=O)O)N2C(=O)[C@@H](NC(=O)[C@H](N)C3=CCC=CC3)[C@H]2SC1 [Velocef, Cefradine]",MICs for A^3IS & antibiotics on S. aureus NCIMB 9587,S. aureus NCIMB 9587,¼
[N-]=[N+]=[N-] [sodium azide],% Toxicity,L929 cells,100%
CN(C/C=C/C#CC(C)(C)C)Cc1cccc2ccccc12 [Terbidifine],effect of combination with hydrogen peroxide source (zone of inhibition),Candida albicans,effects going beyond a combination/additive effects with hydrogen peroxide
Cc1onc(-c2c(F)cccc2Cl)c1C(=O)N[C@@H]1C(=O)N2[C@@H]1SC(C)(C)[C@@H]2C(=O)O [Flucloxacillin],MICs for A^3IS & antibiotics on S. aureus NCIMB 9587,S. aureus NCIMB 9587,½
O=C(N[C@H](CO)[C@H](O)c1ccc([N+](=O)[O-])cc1)C(Cl)Cl [Chloramphenicol],sensitivity of clinical isolate number 15,[1],only mild sensitivity
CN[C@H](CC(C)C)C(=O)N[C@H]1C(=O)N[C@@H](CC(N)=O)C(=O)N[C@H]2C(=O)N[C@H]3C(=O)N[C@H](C(=O)N[C@H](C(=O)O)c4cc(O)cc(O)c4-c4cc3ccc4O)[C@H](O)c3ccc(c(Cl)c3)Oc3cc2cc(c3O[C@@H]2O[C@H](CO)[C@@H](O)[C@H](O)[C@H]2O[C@H]2C[C@](C)(N)[C@H](O)[C@H](C)O2)Oc2ccc(cc2Cl)[C@H]1O [Vancomycin],sensitivity of clinical isolate number 15,[1],resistant
CC(=O)N1CCN(c2ccc(OCC3COC(Cn4ccnc4)(c4ccc(Cl)cc4Cl)O3)cc2)CC1 (centres unmarked) [Ketoconazole],effect of combination with hydrogen peroxide source (zone of inhibition),Candida albicans,effects going beyond a combination/additive effects with hydrogen peroxide
Cc1cc(C2CCCCC2)n(O)c(=O)c1.NCCO [Cyclopiroxalomine],effect of combination with hydrogen peroxide source (zone of inhibition),Candida albicans,effects going beyond a combination/additive effects with hydrogen peroxide
Clc1ccccc1C(c1ccccc1)(c1ccccc1)n1ccnc1 [Clotrimazole],effect of combination with hydrogen peroxide source (zone of inhibition),Candida albicans,effects going beyond a combination/additive effects with hydrogen peroxide
[H]/N=C(/N)N[C@H]1[C@H](O)[C@@H](O)[C@H](O[C@@H]2O[C@@H](C)[C@](O)(C=O)[C@H]2O[C@@H]2O[C@@H](CO)[C@H](O)[C@@H](O)[C@@H]2NC)[C@@H](N/C(N)=N\[H])[C@@H]1O [Streptomycin],sensitivity of clinical isolate number 15,[1],resistant
